From patent US4835182A (priority 1987, dated 1989)
Where two headings read alike, the source gives them in different places.

Experiments:
[1] = background; cited from earlier work
in vivo [2] = experiment: in vivo
in vivo [3] = settings: iv, 10 mg/kg
[4] = in vivo

Row | SMILES | entry into the brain [1] | Kp (in vivo [2]) | Kp (in vivo [3]) | increase of brain/plasma concentration ratio of active drug versus chlorambucil [4]
1 | N[C@@H](Cc1ccc(N(CCCl)CCCl)cc1)C(=O)O [melphalan] | only minimally enter the brain | 0.1 |  | 
2 | O=C(O)CCCc1ccc(N(CCCl)CCCl)cc1 [chlorambucil] |  | 0.02 | 0.017 | 
3 | CC(C)(C)OC(=O)CCCc1ccc(N(CCCl)CCCl)cc1 [tertiary butyl chlorambucil] |  | 0.7 | 0.7 | 4100%
